Laboratory results taken from BindingDB's records for doi:10.1021/cb300671s (National Cancer Institute-Bethesda, 2013).
pKd: −log10 of the molar value.

Experiments:
[1] = molecular target: Protein kinase C alpha type (Homo sapiens, UniProt P17252)
[2] = molecular target: Protein kinase C beta type (Homo sapiens, UniProt P05771)
[3] = molecular target: T1, Protein kinase C epsilon type (Homo sapiens, UniProt Q02156)
T1 sequence (Q02156 whole entry): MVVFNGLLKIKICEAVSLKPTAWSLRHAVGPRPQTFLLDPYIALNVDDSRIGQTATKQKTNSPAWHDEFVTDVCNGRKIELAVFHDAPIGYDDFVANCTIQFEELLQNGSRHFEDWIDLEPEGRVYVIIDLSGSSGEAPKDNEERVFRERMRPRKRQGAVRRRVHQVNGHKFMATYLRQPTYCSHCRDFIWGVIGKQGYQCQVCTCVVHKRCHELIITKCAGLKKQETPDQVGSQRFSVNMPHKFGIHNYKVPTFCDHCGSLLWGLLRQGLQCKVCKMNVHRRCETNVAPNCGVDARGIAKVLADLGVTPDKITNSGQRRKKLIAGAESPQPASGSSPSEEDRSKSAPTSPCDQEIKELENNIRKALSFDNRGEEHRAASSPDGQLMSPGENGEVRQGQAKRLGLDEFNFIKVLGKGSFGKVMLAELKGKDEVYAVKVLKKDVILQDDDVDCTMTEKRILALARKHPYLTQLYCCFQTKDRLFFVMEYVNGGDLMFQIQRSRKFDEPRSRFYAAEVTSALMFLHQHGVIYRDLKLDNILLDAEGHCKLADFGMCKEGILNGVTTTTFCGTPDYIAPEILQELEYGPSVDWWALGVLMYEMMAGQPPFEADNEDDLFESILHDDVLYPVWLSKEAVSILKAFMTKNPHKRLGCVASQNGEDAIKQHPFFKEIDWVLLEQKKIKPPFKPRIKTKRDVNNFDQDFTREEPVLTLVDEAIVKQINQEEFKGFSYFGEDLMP

Protein kinase C = Protein kinase C (Mus musculus, UniProt Q4VA93)
[4] = molecular target: Protein kinase C delta type (Homo sapiens, UniProt Q05655)
Sequence of Protein kinase C delta type (Q05655 whole entry): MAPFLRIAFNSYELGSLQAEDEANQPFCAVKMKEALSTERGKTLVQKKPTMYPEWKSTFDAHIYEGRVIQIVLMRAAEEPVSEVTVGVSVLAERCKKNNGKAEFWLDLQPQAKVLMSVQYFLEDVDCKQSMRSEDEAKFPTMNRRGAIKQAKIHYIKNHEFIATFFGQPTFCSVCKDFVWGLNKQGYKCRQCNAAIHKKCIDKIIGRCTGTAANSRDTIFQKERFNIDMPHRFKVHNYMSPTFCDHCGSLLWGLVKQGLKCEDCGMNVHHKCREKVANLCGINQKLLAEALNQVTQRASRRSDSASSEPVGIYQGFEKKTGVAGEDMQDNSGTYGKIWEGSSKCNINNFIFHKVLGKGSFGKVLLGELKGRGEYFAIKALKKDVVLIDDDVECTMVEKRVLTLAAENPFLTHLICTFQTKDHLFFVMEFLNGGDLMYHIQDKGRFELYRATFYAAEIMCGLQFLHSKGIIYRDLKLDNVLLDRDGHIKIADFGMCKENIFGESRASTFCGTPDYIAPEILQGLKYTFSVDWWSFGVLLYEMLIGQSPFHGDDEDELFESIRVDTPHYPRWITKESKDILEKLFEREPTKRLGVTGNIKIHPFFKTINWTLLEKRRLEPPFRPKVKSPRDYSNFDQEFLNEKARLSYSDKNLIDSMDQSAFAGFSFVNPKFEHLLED

Sequence of Protein kinase C beta type (P05771 whole entry): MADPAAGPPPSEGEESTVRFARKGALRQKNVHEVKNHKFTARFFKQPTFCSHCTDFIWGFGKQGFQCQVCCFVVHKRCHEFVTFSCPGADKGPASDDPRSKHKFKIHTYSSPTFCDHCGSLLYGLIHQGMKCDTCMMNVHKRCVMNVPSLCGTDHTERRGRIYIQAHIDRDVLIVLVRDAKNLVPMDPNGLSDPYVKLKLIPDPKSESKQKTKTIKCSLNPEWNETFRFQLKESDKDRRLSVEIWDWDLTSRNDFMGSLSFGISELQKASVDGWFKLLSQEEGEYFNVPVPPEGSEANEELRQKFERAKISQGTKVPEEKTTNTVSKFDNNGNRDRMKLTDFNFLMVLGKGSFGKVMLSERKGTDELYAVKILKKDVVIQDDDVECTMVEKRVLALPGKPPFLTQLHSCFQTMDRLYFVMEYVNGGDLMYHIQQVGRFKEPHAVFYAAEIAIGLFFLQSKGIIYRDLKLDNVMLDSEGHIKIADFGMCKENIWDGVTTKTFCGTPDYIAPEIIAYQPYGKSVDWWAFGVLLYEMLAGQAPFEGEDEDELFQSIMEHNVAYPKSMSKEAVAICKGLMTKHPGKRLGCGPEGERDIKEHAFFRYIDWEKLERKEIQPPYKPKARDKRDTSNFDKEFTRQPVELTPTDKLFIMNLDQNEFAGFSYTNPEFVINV

SMILES	pKd [1]	pKd [2]	pKd [3]	pKd (Protein kinase C)	pKd [4]
CCC/C=C/C=C/C(=O)O[C@H]1/C(=C/C(=O)OC)C[C@H]2C[C@H]([C@@H](C)O)OC(=O)C[C@H](O)C[C@@H]3C[C@H](OC(C)=O)C(C)(C)[C@](O)(C[C@@H]4C/C(=C/C(=O)OC)C[C@H](/C=C/C(C)(C)[C@]1(O)O2)O4)O3	9.14	9.38	9.62	9.32	
CCCC(=O)O[C@@H]1[C@@H](C)[C@@]2(O)[C@@H](C=C(CO)C[C@@]3(O)C(=O)C(C)=C[C@@H]23)[C@H]2C(C)(C)[C@]12OC(=O)CCC [Butyric acid (1aS,1bS,4aS,7aS,8R,9S,9aR)-9-butyryloxy-4a,7b-dihydroxy-3-((R)-hydroxymethyl)-1,1,6,8-tetramethyl-5-oxo-1,1a,1b,4,4a,5,7a,7b,8,9-decahydro-cyclopropa[3,4]benzo[1,2-e]azulen-9a-yl ester]				9.52	
COC(=O)/C=C1/C[C@H]2C[C@]3(O)O[C@H](C[C@@H](O)CC(=O)O[C@@H]([C@@H](C)O)C[C@@H]4C/C(=C\C(=O)OC)[C@H](OC(C)=O)[C@@](O)(O4)C(C)(C)/C=C/[C@@H](C1)O2)C[C@H](OC(C)=O)C3(C)C [Bryostatin]	9.36	9.49	9.80	9.59	9.68
